In patent publication US20040002441A1, “Recombination modulators and methods for producing and using the same” (priority 2000, published 2004):
Where no end group is shown, it is not given here.

Legend:
[1] = target: T1, bacteriophage λ Integrase (Int) (Escherichia phage lambda, UniProt P03700); assay: Int-mediated straight-L recombination; type: biochemical
T1 sequence (P03700 1-356): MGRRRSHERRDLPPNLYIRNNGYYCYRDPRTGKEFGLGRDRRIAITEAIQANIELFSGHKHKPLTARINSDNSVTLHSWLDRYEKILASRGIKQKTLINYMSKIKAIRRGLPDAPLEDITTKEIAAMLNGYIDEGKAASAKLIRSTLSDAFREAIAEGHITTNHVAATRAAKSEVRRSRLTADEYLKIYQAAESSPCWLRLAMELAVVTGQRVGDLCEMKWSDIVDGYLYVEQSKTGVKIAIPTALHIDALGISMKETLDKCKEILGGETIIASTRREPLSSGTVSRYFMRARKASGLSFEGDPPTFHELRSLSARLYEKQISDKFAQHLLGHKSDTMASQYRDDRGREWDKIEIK
Experimental: (§1) FIG. 11 depicts effect of peptide KWWCRW (diamonds) and peptide KWWWRW (squares) on the remaining 3 pathways of Int-mediated recombination. Recombination extents were normalized to the amount of recombination in untreated reactions and expressed as relative % recombination. A. Effect of peptides on integrative recombination (IC50 values for both peptides are roughly 0.2 μM). Reactions were assembled as for bent-L recombination except that they were incubated at room temperature, the substrates were a supercoiled plasmid (4.8 kb) carrying attP and ^32P labeled 91 bp PCR fragment encoding attB. […] The recombination substrates were PCR fragments encoding the attL (^32P-labeled) and attR sites. Reactions contained 50 NM Xis in addition to Int and IHF (37 nM), as well as 100 ng salmon sperm DNA, and were incubated at room temperature. C. Effect of peptides on straight-L recombination (IC50 values for peptide KWWCRW is 0.06 μM, while for peptide KWWWRW is slightly over 0.1 μM). Reactions were assembled as for bent-L recombination except that they were incubated at room temperature; the substrates were two PCR fragments, one of which was ^32P-labeled and 187 bp, the other of which was unlabeled and 496 bp.
(§2) Int Assays. […] Dried gels were visualized and quantitated using a Molecular Dynamics PhosphorImager.

[2] = target: T1, bacteriophage λ Integrase (Int); assay: Formation of covalent protein-DNA complexes (CPDs) by Int; type: biochemical
From the text: Int, like its relative tyrosine recombinases, makes transient covalent protein-DNA complexes (CPDs) during the cleavage stage of the recombination reaction. […] Since these complexes are the product of DNA cleavage by Int prior to strand exchange or ligation, we tested the effect of peptide KWWCRW on their formation. The peptide inhibited accumulation of both attL and attR CPDs by 65-75% (data not shown), supporting our model that KWWCRW blocks recombination by interfering with the cleavage step of the reaction.

[3] = target: T2, bacteriophage λ Integrase (Int) (Escherichia phage lambda, UniProt P03700); assay: Int-mediated integrative recombination; type: biochemical; settings: IC50, inhibition of integrative recombination, integration pathway
T2 sequence (P03700 1-356): T1 sequence (P03700 1-356)
T2 sequence (P0A6X7 1-99 partner): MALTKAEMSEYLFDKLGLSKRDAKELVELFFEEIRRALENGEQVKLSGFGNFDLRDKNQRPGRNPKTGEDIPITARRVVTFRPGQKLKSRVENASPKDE
T2 sequence (P0A6Y1 1-94 partner): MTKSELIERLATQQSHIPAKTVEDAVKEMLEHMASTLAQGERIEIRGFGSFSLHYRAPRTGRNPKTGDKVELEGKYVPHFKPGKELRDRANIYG
Experimental: as §1, §2

[4] = target: restriction enzymes with unique sites in pUC19; assay: Restriction enzyme assays, all enzymes tested; type: biochemical
Experimental: Restriction enzyme assays. Restriction digests were performed as specified and the products were separated on 0.8% agarose gels electrophoresed at 80-90V in 1× Tris borate EDTA buffer. Gels were photographed, scanned and quantitated using NIH Image v.1.55, as recommended in the instruction manual.

[5] = test system: T4 topoisomerase (type II); assay: T4 topoisomerase DNA relaxation assay; type: biochemical, bacteriophage T4; settings: for effect on DNA relaxation: 100 μM peptide
Experimental: T4 topoisomerase assays. Reactions were performed as described (Huff and Kreuzer, 1990) using 30 or 60 ng of enzyme and 200 ng of supercoiled pUC19 per reaction. The products were electrophoresed on 0.8% agarose gels at 40V in 0.5× Tris borate EDTA buffer for about 6 hours. The gel was then stained with EtBr for viewing.

[6] = target: bacteriophage λ Integrase (Int) (Escherichia phage lambda, UniProt P03700); assay: Top strand cleavage of phosphorothiolate-modified attL (attLS); type: biochemical; settings: with Int, IHF, Xis and attR
Experimental: FIG. 18 depicts effect of peptide WKHYNY on DNA cleavage. A. Time course of resolution of excision HJs. HJs were isolated, and Int, IHF, and Xis were added in the presence or absence of peptide 52 (100 μM) and stopped at various timepoints (1, 5, 15, 30, 60, and 90 min). Absence of peptide, closed circles; presence of peptide, open squares. B. The extent of strand cleavage of attL. An attL site containing a phosphorothiolate modification at the point of top strand cleavage (attLS) was incubated with Int, IHF, and Xis, in the presence of attR and in the presence or absence of peptide WKHYNY. Absence of peptide, open squares; presence of peptides, closed diamonds.
In contrast, the peptide has little or no effect on the, rate of cleavage of the attL early intermediate under recombination conditions (FIG. 18B). We measured this by using attL substrates containing a bridging phosphorothiolate modification at the locus of top strand cleavage. This modification, developed by Burgin and Nash (1995), replaces a bridging oxygen atom in the DNA backbone with a sulfur atom. Upon cleavage, the covalent Int-DNA intermediate remains trapped because the sulfhydryl generated at the free 5′ end is a much poorer nucleophile of the phosphotyrosyl bond than the normal hydroxyl group (Burgin et al., 1995). […]
Target sequence in this assay (P03699 whole entry partner, one chain of several): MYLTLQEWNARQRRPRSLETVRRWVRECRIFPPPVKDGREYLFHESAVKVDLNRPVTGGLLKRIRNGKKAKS

Substance | IC50 [1] [µM] | inhibition of accumulation of attL and attR CPDs [2] | IC50 [3] [µM] | IC50 [4] [µM] | effect on DNA relaxation [5] | IC50 ([5]; supercoiled pUC19) [µM] | effect on first strand cleavage of attLS [6]
KWWCRW-NH2 [Peptide 59, KWWCRW] | 0.06 | 65-75% | 0.3 | ~40 | blocked it completely | 40 | –
WKHYNY-NH2 [Peptide 52, WKHYNY] | – | – | – | – | no effect | – | no influence on the kinetics or the amount of cleavage
KWWWRW-NH2 [Peptide 56, KWWWRW] | > 0.1 | – | ~0.2 | – | – | – | –
